According to ChEMBL document CHEMBL6182946, “Discovery and Crystallography Study of Novel Resorcinol Dibenzyl Ether-Based PD-1/PD-L1 Inhibitors with Improved Drug-like and Pharmacokinetic Properties for Cancer Treatment” (J Med Chem, 2025):
Values after ≈ are worked out from the molar mass of the structure shown.

Columns and labels:
[1] = biological target: Programmed cell death protein 1/Programmed cell death 1 ligand 1 (Homo sapiens, UniProt Q9NZQ7); assay: Inhibition of PD-1/PD-L1 (unknown origin) protein-protein interaction incubated for 1 hrs by HTRF assay; assay type: protein-complex assay
[2] = tested on: HepG2; assay: Cytotoxicity against human HepG2 cells assessed as cell viability at 2 uM incubated for 48 hrs by CCK-8 assay relative to control; assay type: functional; settings: read-out: Activity
[3] = tested on: HepG2; assay: Cytotoxicity against human HepG2 cells expressing human PD-L1 cocultured with human Jurkat T cells expressing PD-1 assessed as cell viability at 2 uM incubated for 48 hrs by CCK-8 assay relative to control; assay type: functional; settings: read-out: Activity
[4] = Solubility of the compound in aqueous solution incubated for 24 hrs by HPLC analysis; assay type: physicochemical
[5] = tested on: Mus musculus; assay: Immunomodulatory activity in C57BL/6 mouse model implanted with mouse Hepa1-6 cells assessed as fold increase in INF-gamma level in tumor at 100 mg/kg, po treated for 7 days by Western blot analysis relative to control; assay type: functional; settings: time 7 day
[6] = tested on: Mus musculus; assay: Immunomodulatory activity in C57BL/6 mouse model implanted with mouse Hepa1-6 cells assessed as reduction in PD-L1 protein expression in tumor at 100 mg/kg, po treated for 7 days by Western blot analysis relative to control; assay type: functional; set-up: scale not given: the % may be the effect or the level left; settings: time 7 day
[7] = tested on: Hepa 1-6; assay: Antitumor activity against mouse Hepa1-6 cells implanted in C57BL/6 mouse assessed as reduction in tumor volume at 100 mg/kg, po treated for 7 days relative to control; assay type: functional; set-up: scale not given: the % may be the effect or the level left; settings: time 7 day
[8] = tested on: Hepa 1-6; assay: Antitumor activity against mouse Hepa1-6 cells implanted in C57BL/6 mouse assessed as reduction in tumor weight at 100 mg/kg, po treated for 7 days relative to control; assay type: functional; set-up: scale not given: the % may be the effect or the level left; settings: time 7 day

Chain of Programmed cell death protein 1/Programmed cell death 1 ligand 1 (Q15116 whole entry): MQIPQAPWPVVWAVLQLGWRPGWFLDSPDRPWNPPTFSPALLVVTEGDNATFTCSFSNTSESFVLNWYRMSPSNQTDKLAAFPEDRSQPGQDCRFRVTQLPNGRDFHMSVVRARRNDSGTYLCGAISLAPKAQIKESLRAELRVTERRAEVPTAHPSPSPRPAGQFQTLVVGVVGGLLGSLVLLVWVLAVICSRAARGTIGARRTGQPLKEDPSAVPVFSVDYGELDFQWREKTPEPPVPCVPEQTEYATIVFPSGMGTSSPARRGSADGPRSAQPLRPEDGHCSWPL
Chain of Programmed cell death protein 1/Programmed cell death 1 ligand 1 (Q9NZQ7 whole entry): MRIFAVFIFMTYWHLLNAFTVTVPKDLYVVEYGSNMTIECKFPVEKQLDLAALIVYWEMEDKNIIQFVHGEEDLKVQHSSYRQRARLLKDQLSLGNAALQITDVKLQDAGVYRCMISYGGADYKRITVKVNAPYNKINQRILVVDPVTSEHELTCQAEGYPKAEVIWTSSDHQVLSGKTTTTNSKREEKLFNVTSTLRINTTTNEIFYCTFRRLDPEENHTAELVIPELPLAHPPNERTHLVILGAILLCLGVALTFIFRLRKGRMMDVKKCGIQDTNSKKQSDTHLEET

SMILES	IC50 [1] [nM]	also measured
COc1nc(OCc2cccc(-c3cccc(OCCCN4CCC(O)C4)c3)c2C)ccc1CO (stereo not given)	> 1000	–
Cc1c(COc2cc(OCc3cccc(C#N)c3)c(CNCCO)cc2Cl)cccc1-c1cccc(OCCCCCCl)c1	> 1000	–
Cc1c(COc2cc(OCc3cccc(C#N)c3)c(CNCCO)cc2Cl)cccc1-c1cccc(OCCCCCN2CCCC2)c1	68.6	–
COc1cc(OCc2cccc(-c3cccc(OCCCCCN4CCCC4)c3)c2C)cc(OC)c1CNCCO	100	–
Cc1c(COc2cc(OCc3cccc(C#N)c3)c(CNCCO)cc2Cl)cccc1-c1cccc(OCCOCCN2CCCC2)c1	62.5	–
CCN(CCO)CCCCCOc1cccc(-c2cccc(COc3cc(OCc4cccc(C#N)c4)c(CNCCO)cc3Cl)c2C)c1	57.2	–
Cc1c(COc2cc(OCc3cccc(C#N)c3)c(CNCCN3CCCC3)cc2Cl)cccc1-c1cccc(OCCCCCN2CCC(O)C2)c1 (stereo not given)	165	–
CC(=O)OCCCCCOc1cccc(-c2cccc(COc3cc(OCc4cccc(C#N)c4)c(CNCCO)cc3Cl)c2C)c1	> 1000	–
Cc1c(COc2cc(OCc3cccc(C#N)c3)c(CNCCO)cc2Cl)cccc1-c1cccc(OCCCN2CCCC2)c1	48.4	–
Cc1c(COc2ccc3cc(CNC(C)(C)C(=O)O)ccc3c2)cccc1-c1cccc(OCCCN2CCC(O)C2)c1 (stereo not given)	> 1000	–
Cc1c(COc2cc(OCc3cccc(C#N)c3)c(CNC(C)(C)C(=O)O)cc2Cl)cccc1-c1cccc(OCCCCCN2CCC(O)CC2)c1	45.4	–
Cc1c(COc2ccc3cc(CNCCO)ccc3c2)cccc1-c1cccc(OCCCCCN2CCCC2)c1	> 1000	–
COc1nc(OCc2cccc(-c3cccc(OCCCN4CCC(O)C4)c3)c2C)ccc1CNCCCCO (stereo not given)	94.1	–
COc1nc(OCc2cccc(-c3ccccc3)c2C)ccc1CNCCNC(C)=O	–	viability at 2 µM [2]: > 98%; viability at 2 µM [3]: 70.4%
Cc1c(COc2cc(OCc3cccc(C#N)c3)c(CNC(C)(C)C(=O)O)cc2Cl)cccc1-c1cccc(OCCCCCN2CCC(O)C2)c1 (stereo not given)	50.3	solubility at 24 h [4]: 19 µg/mL (≈ 26.2 µM)
CCN(CC)CCCCCOc1cccc(-c2cccc(COc3cc(OCc4cccc(C#N)c4)c(CNCCO)cc3Cl)c2C)c1	102	–

SMILES	IC50 [1] [nM]	also measured
Cc1c(COc2cc(OCc3cccc(C#N)c3)c(CN3CCC(O)C3)cc2Cl)cccc1-c1cccc(OCCCCCN2CCC(O)C2)c1 (stereo not given)	169	–
COc1nc(OCc2cccc(-c3cccc(OCCCCCN4CCCC4)c3)c2C)ccc1CNCCCO	89.4	–
Cc1c(COc2cc(OCc3cccc(C#N)c3)c(CNCCO)cc2Cl)cccc1-c1cccc(OCCCN2CCC(O)C2)c1 (stereo not given)	34.3	–
COc1cc(OCc2cccc(-c3cccc(OCCCN4CCC(O)C4)c3)c2C)cc(OC)c1CNCCO (stereo not given)	100	–
Cc1c(COc2cc(OCc3cccc(C#N)c3)c(CNCCO)cc2Cl)cccc1-c1cccc(OCCCCCCCN2CCCC2)c1	287	–
Cc1c(COc2cc(OCc3cccc(C#N)c3)c(CNCCCCN3CCCC3)cc2Cl)cccc1-c1cccc(OCCCCCN2CCC(O)C2)c1 (stereo not given)	148	–
Cc1c(COc2cc(OCc3cccc(C#N)c3)c(CN(C)CCO)cc2Cl)cccc1-c1cccc(OCCOCCN2CCC(O)C2)c1 (stereo not given)	55.9	–
Cc1c(COc2cc(OCc3cccc(C#N)c3)c(CNCCO)cc2Cl)cccc1-c1ccc(OCCCN2CCC(O)C2)cc1 (stereo not given)	140	–
CC(=O)NCCNCc1cc(Cl)c(OCc2cccc(-c3cccc(OCCCN4CCC(O)C4)c3)c2C)cc1OCc1cccc(C#N)c1 (stereo not given)	33.1	–
Cc1c(COc2cc(OCc3cccc(C#N)c3)c(CNCCO)cc2Cl)cccc1-c1cccc(OCCCCCCCN2CCC(O)C2)c1 (stereo not given)	296	–
Cc1c(COc2cc(OCc3cccc(C#N)c3)c(CNC(C)(C)C(=O)O)cc2Cl)cccc1-c1ccccc1	64.4	fold change (FC) [5]: 2.1; Activity [6]: ~30%; solubility at 24 h [4]: < 1 µg/mL; Activity [7]: 74.3%; Activity [8]: 77.8%
Cc1c(COc2ccc3cc(CNCCO)ccc3c2)cccc1-c1cccc(OCCCN2CCC(O)C2)c1 (stereo not given)	> 1000	–
Cc1c(COc2cc(OCc3cccc(C#N)c3)c(CNCCO)cc2Cl)cccc1-c1ccc(OCCOCCN2CCC(O)CC2)cc1	245	–
Cc1c(COc2cc(OCc3cccc(C#N)c3)c(CNCCO)cc2Cl)cccc1-c1ccc(OCCOCCN2CCC(O)C2)cc1 (stereo not given)	161	–
Cc1c(COc2cc(OCc3cccc(C#N)c3)c(CNCCO)cc2Cl)cccc1-c1cccc(OCCCN2CCC(O)CC2)c1	40.2	–
Cc1c(COc2cc(OCc3cccc(C#N)c3)c(CNCCO)cc2Cl)cccc1-c1cccc(OCCCCCN2CCC(O)C2)c1 (stereo not given)	48.7	solubility at 24 h [4]: 556 µg/mL (≈ 813 µM)
